Assay [1] concerns the target Acyl-protein thioesterase 2 [S122A] (Homo sapiens, UniProt O95372, S122A). The experiment in a line: Fluorescence Binding Assays. To be noted: 25 °C.
The target in assay [2] is T1, Acyl-protein thioesterase 2 (Homo sapiens, UniProt O95372). The experiment in a line: Fluorescence Binding Assays. Conditions: 25 °C.
The target of assay [3] is Acyl-protein thioesterase 2 [L78I,A85S,P86Q] (Homo sapiens, UniProt O95372, A85S/L78I/P86Q). The experiment in a line: Steady-State Kinetic Assays. To be noted: pH 6.5. Here is the method:
(§1) Enzymes were diluted to 10 nM in PBS pH 6.5 (adjusted with sodium acetate) supplemented with 0.1 g/L pluronic F127 (Sigma). Varying concentrations of resorufin acetate (Sigma) in DMSO were added as 5 μL aliquots to clear-bottom 96-well plates (Greiner bio-one). Using a multi-channel pipette, 95 μL of enzyme was added to each well and quickly mixed by pipetting up and down several times. Each enzyme was assayed in 2 separate runs, each with 4 replicates per substrate concentration and 4 replicates of catalytic-dead enzyme.

For assay [4], the target named is Acyl-protein thioesterase 2 [M178L] (Homo sapiens, UniProt O95372, M178L). The experiment in a line: Steady-State Kinetic Assays. To be noted: pH 6.5. Here is the method:
as §1

For assay [5], the target named is Acyl-protein thioesterase 2 [P86Q] (Homo sapiens, UniProt O95372, P86Q). The experiment in a line: Steady-State Kinetic Assays. Conditions: pH 6.5. As to the method: as §1
Chain of Acyl-protein thioesterase 2 [P86Q] (O95372 whole entry P86Q): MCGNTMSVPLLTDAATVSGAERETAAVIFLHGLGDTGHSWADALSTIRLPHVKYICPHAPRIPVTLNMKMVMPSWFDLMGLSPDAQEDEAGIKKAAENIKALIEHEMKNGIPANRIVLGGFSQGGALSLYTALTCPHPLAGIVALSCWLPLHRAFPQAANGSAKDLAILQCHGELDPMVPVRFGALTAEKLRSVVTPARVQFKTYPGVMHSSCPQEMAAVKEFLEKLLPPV
In assay [6] the target is Acyl-protein thioesterase 2 [L78I,A85S,P86Q,H152R,R153A,A154S] (Homo sapiens, UniProt O95372, A154S/A85S/H152R/L78I/P86Q/R153A). The experiment in a line: Steady-State Kinetic Assays. To be noted: pH 6.5. Here is the method:
as §1

For assay [7], the target named is Acyl-protein thioesterase 2 [H152R] (Homo sapiens, UniProt O95372, H152R). The experiment in a line: Steady-State Kinetic Assays. To be noted: pH 6.5. Here is the method:
as §1

For assay [8], the target named is Acyl-protein thioesterase 2 [L78I] (Homo sapiens, UniProt O95372, L78I). The experiment in a line: Steady-State Kinetic Assays. To be noted: pH 6.5. As to the method: as §1
Chain of Acyl-protein thioesterase 2 [L78I] (O95372 whole entry L78I): as the sequence (O95372 whole entry P86Q) above, with L78I, Q86P counted along it
For assay [9], the target named is Acyl-protein thioesterase 2 [L78I,A85S] (Homo sapiens, UniProt O95372, A85S/L78I). The experiment in a line: Steady-State Kinetic Assays. Conditions: pH 6.5. As to the method: as §1
Chain of Acyl-protein thioesterase 2 [L78I,A85S] (O95372 whole entry L78I/A85S): as the sequence (O95372 whole entry P86Q) above, with L78I, A85S, Q86P counted along it
The target in assay [10] is T1, Acyl-protein thioesterase 2. The experiment in a line: Steady-State Kinetic Assays. Conditions: pH 6.5. Here is the method:
as §1

Assay [11] has as its target Acyl-protein thioesterase 1 [I75L] (Homo sapiens, UniProt O75608, I75L). The experiment in a line: Steady-State Kinetic Assays. To be noted: pH 6.5. Here is the method: as §1
Assay [12] concerns the target Acyl-protein thioesterase 1 [I75L,S82A] (Homo sapiens, UniProt O75608, I75L/S82A). The experiment in a line: Steady-State Kinetic Assays. Conditions: pH 6.5. As to the method:
as §1

Assay [13] concerns the target Acyl-protein thioesterase 1 (Homo sapiens, UniProt O75608). The experiment in a line: Steady-State Kinetic Assays. Conditions: pH 6.5. As to the method: as §1
In assay [14] the target is Acyl-protein thioesterase 1 [Q83P] (Homo sapiens, UniProt O75608, Q83P). The experiment in a line: Steady-State Kinetic Assays. To be noted: pH 6.5. Here is the method: as §1
Chain of Acyl-protein thioesterase 1 [Q83P] (O75608 whole entry Q83P): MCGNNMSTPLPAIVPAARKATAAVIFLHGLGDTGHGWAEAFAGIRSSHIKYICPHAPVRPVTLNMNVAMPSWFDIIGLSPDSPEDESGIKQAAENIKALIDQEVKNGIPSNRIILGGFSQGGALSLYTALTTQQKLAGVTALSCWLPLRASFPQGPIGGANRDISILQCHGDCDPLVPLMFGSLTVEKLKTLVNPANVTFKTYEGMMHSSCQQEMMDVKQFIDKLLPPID
The target of assay [15] is Acyl-protein thioesterase 1 [I75L,S82A,Q83P,R149H,A150R,S151A] (Homo sapiens, UniProt O75608, A150R/I75L/Q83P/R149H/S151A/S82A). The experiment in a line: Steady-State Kinetic Assays. To be noted: pH 6.5. As to the method: as §1
Chain of Acyl-protein thioesterase 1 [I75L,S82A,Q83P,R149H,A150R,S151A] (O75608 whole entry I75L/S82A/Q83P/R149H/A150R/S151A): as the sequence (O75608 whole entry Q83P) above, with I75L, S82A, R149H, A150R, S151A counted along it
The target in assay [16] is Acyl-protein thioesterase 1 [L176M] (Homo sapiens, UniProt O75608, L176M). The experiment in a line: Steady-State Kinetic Assays. To be noted: pH 6.5. Here is the method:
as §1

In assay [17] the target is Acyl-protein thioesterase 1 [I75L,S82A,Q83P] (Homo sapiens, UniProt O75608, I75L/Q83P/S82A). The experiment in a line: Steady-State Kinetic Assays. Conditions: pH 6.5. As to the method:
as §1

In BindingDB's records for doi:10.1021/acschembio.6b00720 (University of Michigan, 2016) one finds Kd, Ki and IC50 data, which are given here for four compounds.

T1 sequence (O95372 whole entry): as the sequence (O95372 whole entry P86Q) above, with Q86P counted along it
Chain of Acyl-protein thioesterase 2 [S122A] (O95372 whole entry S122A): as the sequence (O95372 whole entry P86Q) above, with Q86P, S122A counted along it
Chain of Acyl-protein thioesterase 2 [L78I,A85S,P86Q,H152R,R153A,A154S] (O95372 whole entry L78I/A85S/P86Q/H152R/R153A/A154S): as the sequence (O95372 whole entry P86Q) above, with L78I, A85S, H152R, R153A, A154S counted along it
Chain of Acyl-protein thioesterase 2 [H152R] (O95372 whole entry H152R): as the sequence (O95372 whole entry P86Q) above, with Q86P, H152R counted along it
Chain of Acyl-protein thioesterase 2 [M178L] (O95372 whole entry M178L): as the sequence (O95372 whole entry P86Q) above, with Q86P, M178L counted along it
Chain of Acyl-protein thioesterase 2 [L78I,A85S,P86Q] (O95372 whole entry L78I/A85S/P86Q): as the sequence (O95372 whole entry P86Q) above, with L78I, A85S counted along it
Chain of Acyl-protein thioesterase 1 [I75L,S82A] (O75608 whole entry I75L/S82A): as the sequence (O75608 whole entry Q83P) above, with I75L, S82A, P83Q counted along it
Chain of Acyl-protein thioesterase 1 [I75L,S82A,Q83P] (O75608 whole entry I75L/S82A/Q83P): as the sequence (O75608 whole entry Q83P) above, with I75L, S82A counted along it
Chain of Acyl-protein thioesterase 1 [L176M] (O75608 whole entry L176M): as the sequence (O75608 whole entry Q83P) above, with P83Q, L176M counted along it
Chain of Acyl-protein thioesterase 1 [I75L] (O75608 whole entry I75L): as the sequence (O75608 whole entry Q83P) above, with I75L, P83Q counted along it
Chain of Acyl-protein thioesterase 1 (O75608 whole entry): as the sequence (O75608 whole entry Q83P) above, with P83Q counted along it

By Kd is commonly meant the equilibrium constant for the complex coming apart. Low values mean higher affinity, high ones lower affinity. On to `O=C1C=CC2C(=C1)Oc1cc(O)ccc1C2c1cc(C(=O)NCCOCCOCCOCCn2cc(COc3ccc(N4CCN(C(=O)c5cc6c(s5)-c5ccccc5S(=O)(=O)C6)CC4)cc3)nn2)ccc1C(=O)O` (stereo not drawn), for which the Kd in [1] is 770 nM; in assay [2], 1020 nM.

The term Ki denotes a dissociation constant, usually derived from enzyme kinetics or from competition with a known ligand. A higher Ki goes with a looser hold on the target. With `O=C(CN1CCN(C(=O)c2ccco2)CC1)Nc1cc(C(F)(F)F)ccc1Cl` [ML348], the Ki was 3400 nM in assay [3]; > 10000 nM in [4]; > 10000 nM in assay [5]; 430 nM in assay [6]; > 10000 nM in assay [7]; 5800 nM in assay [8]. The Ki was 6200 nM in assay [9] and > 10000 nM in assay [10].

What is called IC50 is the concentration at which inhibition is half-maximal. Lower therefore signals higher potency. As for `COc1ccc(N2CCN(C(=O)c3cc4c(s3)-c3ccccc3SC4)CC2)cc1` [ML349-thioether], in assay [1], the IC50 is > 100000 nM and the Kd is > 10000 nM. Moreover, in assay [2], the IC50 was > 100000 nM and the Kd was > 10000 nM.

As to `COc1ccc(N2CCN(C(=O)c3cc4c(s3)-c3ccccc3S(=O)(=O)C4)CC2)cc1` [ML349], the Ki is 370 nM in assay [11]; > 10000 nM in assay [3]; 200 nM in assay [4]; 130 nM in [5]; 280 nM in assay [12]; > 10000 nM in assay [6]. The inhibition constant (Ki) in assay [7] was 660 nM; in assay [13] it was > 10000 nM; in assay [8], > 10000 nM; in assay [9], > 10000 nM; in assay [14], > 10000 nM; in assay [15], 180 nM. Moreover, the Ki in [16] is > 10000 nM; in assay [10], 120 nM; in assay [17], 1200 nM. The IC50 in assay [1] came to 1000 nM; in assay [2] it was 1100 nM. For the same compound, the Kd in assay [1] is 160 nM; in assay [2] it was 240 nM.
